Tests used:
Assay type in all cases: cell-based
SMARCA2 [1] = target: T1, SMARCA2 (Homo sapiens, UniProt P51531); test: MSD SMARCA2 degradation in A549 cell line; parameters: endogenous in cells; conditions: for SMARCA2 MSD A549 degradation 24 h: Average Dmax % / DC50: A549 cells; for DC50 / Dmax: 24 h; for DC50: read-out: SMARCA2 MSD A549 degradation 24 h: Average external-Abs DC50; for Dmax: A549, A549 cells
Procedure: Example 53. MSD SMARCA2 Degradation in A549 Cell Line
Cells were seeded into 96-well plates (A549 cells: 2×10^4 cells/well/100 ul media) abd incubated overnight. The next day, 200 nl compound were added into the intermediate plate with Echo (Labcyte 550) from source plate containing a 3-fold serial dilution from top concentration of 1 mM. The culture medium was changed with 80 ul of fresh medium and 80 ul of 2× compound solution was added into the well to make a final concentration of 1000 nM, 333.3 nM, 111.1 nM, 37.04 nM, 12.35 nM, 4.115 nM, 1.372 nM, 0.457 nM, 0.152 nM and 0 nM (DMSO). The wells were mixed and then incubated for 24 hours. The media was aspirated from the cultures and 60 ul pre-chilled PIPA lysis buffer (Boston BioProducts BP-115D) with protease/phosphatase inhibitor (Roche 05892791001/Roche 04906837001) was added into the well to lyze the cells for 20 minutes at 4° C. The MSD plate (L15XA) was coated with 40 ul cell lysate and incubated at 4° C. overnight. The next day, the plate was washed three times with TBST (CST #9997S), 150 ul/well. The MSD plates was blocked with 150 ul blocking buffer per well and shaked for 1 hr at R^†, 600 rpm. The blocking buffer was 3% Blocker A (MSD, R93BA-4) in TBST. The MSD plate was washed three times with 150 ul/well of TBST and 25 ul/well of detection antibody (Rabbit anti-SMARCA2/BRM antibody, 100 μg/ml, ab223735) was added at final concentration of 1 ug/mi diluted in 1% o Blocking buffer and shaken for 1 hour at R^†, 600 rpm. The MSD plate was washed three times with 150 ul/well of TBST and 25 ul/well of SULFO-TAG anti-rabbit antibody (MSD, R32AB-1) was added at final concentration of 1 μg/ml diluted in […] Blocking buffer and shaken for 1 hour at R^†, 600 rpm. The MSD plate was washed three times with 150 ul/well of TBST and 150 ul/well of 2×MSD reading buffer diluted from 4× (MSD, R92TC-2) with water was added. Lastly, the MSD instrument was read.
(§1) The letter codes for SMARCA2 degradation potency (DC50) include: A (<100 nM), B (100-500 nM), C (501-1000 nM), and D (>1000 nM). The letter codes for the percentage of SMARCA2 degradation after 24 hours (Dmax % o) include: A (>90% o degradation), B (>70-90% o degradation), C (50-70% o degradation), and D (<50% degradation).

SMARCA4 = target: T2, SMARCA4 (Homo sapiens, UniProt P51532); test: SMARCA4 Western blot MV4-11 degradation; conditions: for SMARCA4 MSD MV411 degradation 24 h: average Dmax % / DC50: MV4-11 cells; for DC50 / Dmax: 24 h; for DC50: read-out: SMARCA4 MSD MV411 degradation 24 h: Mean external-Abs DC50; for Dmax: MV4-11, MV4-11 cells, read-out: SMARCA4 MSD MV411 degradation 24 h: average Dmax %
T2 construct: SMARCA2 and SMARCA4 protein degradation in MV4-11 cells; endogenous in cells; host or cells: MV4-11
T2 sequence (P51532 whole entry): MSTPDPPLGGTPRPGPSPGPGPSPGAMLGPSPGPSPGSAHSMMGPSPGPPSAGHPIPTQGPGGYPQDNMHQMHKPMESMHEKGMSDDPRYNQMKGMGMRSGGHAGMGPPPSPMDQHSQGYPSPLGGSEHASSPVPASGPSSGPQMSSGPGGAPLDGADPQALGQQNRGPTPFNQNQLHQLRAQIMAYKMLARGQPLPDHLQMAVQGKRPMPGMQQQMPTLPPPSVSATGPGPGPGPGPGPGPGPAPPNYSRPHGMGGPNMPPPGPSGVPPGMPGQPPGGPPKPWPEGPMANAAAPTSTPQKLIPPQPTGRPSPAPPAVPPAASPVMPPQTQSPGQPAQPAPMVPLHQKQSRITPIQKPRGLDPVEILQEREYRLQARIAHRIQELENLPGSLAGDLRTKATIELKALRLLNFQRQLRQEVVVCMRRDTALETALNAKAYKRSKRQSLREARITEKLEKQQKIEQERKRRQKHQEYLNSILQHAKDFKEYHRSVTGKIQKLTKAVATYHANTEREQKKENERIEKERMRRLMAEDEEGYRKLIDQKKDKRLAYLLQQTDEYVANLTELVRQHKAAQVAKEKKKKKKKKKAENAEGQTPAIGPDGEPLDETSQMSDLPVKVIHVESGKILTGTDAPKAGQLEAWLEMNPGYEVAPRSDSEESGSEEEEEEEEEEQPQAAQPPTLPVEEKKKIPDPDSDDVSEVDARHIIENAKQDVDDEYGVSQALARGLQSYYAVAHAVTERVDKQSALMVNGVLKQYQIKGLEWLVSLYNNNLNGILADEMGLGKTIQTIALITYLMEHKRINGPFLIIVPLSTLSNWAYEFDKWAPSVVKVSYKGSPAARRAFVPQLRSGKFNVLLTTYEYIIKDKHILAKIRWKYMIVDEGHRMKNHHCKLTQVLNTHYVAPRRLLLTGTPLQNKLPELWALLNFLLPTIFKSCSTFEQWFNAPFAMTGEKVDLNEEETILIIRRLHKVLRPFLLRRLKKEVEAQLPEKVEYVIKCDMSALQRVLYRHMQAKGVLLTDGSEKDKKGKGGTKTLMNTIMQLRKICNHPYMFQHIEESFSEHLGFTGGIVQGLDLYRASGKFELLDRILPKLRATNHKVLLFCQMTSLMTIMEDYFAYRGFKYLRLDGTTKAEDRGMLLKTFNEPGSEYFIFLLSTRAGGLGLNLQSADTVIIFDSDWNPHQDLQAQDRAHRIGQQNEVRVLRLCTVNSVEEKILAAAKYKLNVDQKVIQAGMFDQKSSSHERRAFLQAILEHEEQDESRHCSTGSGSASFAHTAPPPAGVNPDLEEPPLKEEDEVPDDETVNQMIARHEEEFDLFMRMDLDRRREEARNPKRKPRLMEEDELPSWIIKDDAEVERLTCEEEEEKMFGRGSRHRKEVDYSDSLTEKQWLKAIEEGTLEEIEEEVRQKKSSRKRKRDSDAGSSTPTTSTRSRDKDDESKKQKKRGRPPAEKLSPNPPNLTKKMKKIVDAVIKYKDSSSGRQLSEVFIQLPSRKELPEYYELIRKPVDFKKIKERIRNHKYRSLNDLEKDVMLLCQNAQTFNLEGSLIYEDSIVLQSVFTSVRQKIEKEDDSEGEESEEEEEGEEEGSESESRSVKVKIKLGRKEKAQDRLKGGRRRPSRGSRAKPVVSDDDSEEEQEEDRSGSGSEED
Procedure: Example 54. SMARCA2 and SMARCA 4 Western Blot MV4-11 Degradation
Cells were seeded into 6-well plates (MV4-11: 4×10^6 cells/well/1 ml) and 1 ml of 2× compound solution was added into the well to make the final concentration and the plates were mixed well and incubated for 24 hours (No cytotoxicity was observed). The cell were collected with media and spun at 3000 rpm for 5 minutes. The supernatant was aspirated and the well and the cells were washed with cold PBS once and combined for centrifugation again; the supernatant aspirated again. 200 ul pre-chilled RIPA lysis buffer (Boston BioProducts BP-115D) with protease/phosphatase inhibitor (Roche 05892791001/Roche 04906837001) was directly added into the tube to lyze the cells for 20 minutes on ice. The cell lysate were collected into EP tubes and spun at 13000 rpm for 20 minutes and 72 ul supernatant was transferred to a fresh EP tube containing 18 ul of 5× loading buffer (Beyotime Bio P0015) to make the loading samples. The samples were heated to 100° C. for 10 minutes and cooled to RT and microcentrifuged. 20 ul of samples were loaded onto SDS-PAGE gel (Novex, WG1402BOX) and the gel was run at 80 V for 20 minutes and 120 V for 1.5 hours. The samples were electrotransfer to a NC membrane using wet-transfer method with 250 mA for 2.5 hours. The membrane was blocked with LICOR blocking buffer (LI-COR, 927-50000) for 1 hour. The membrane was washed three times with TBST (CST #9997S), 5 minutes each. Incubation was performed with primary antibody prepared in blocking buffer with 0.1% Tween-20 (Solarbio, P8220) at 4° C. overnight (Anti-SMARCA2/BRM antibody (ab15597) 1:500; Anti-BRG1 antibody [EPR3912] (ab108318) 1:1000; Rabbit anti-Baf180 antibody [EPR15860] (Abcam, ab196022) 1:1000; mouse anti-beta-Actin (8H10D10) (CST #3700) 1:10000). The membrane was washed three times with TBST, 5 minutes each. Incubation with secondary antibody was performed for 1 hour at RT (anti-rabbit IgG (Licor, 926-32211) 1:5000; anti-mouse IgG (LI-COR, 926-68070) 1:5000). The membrane was washed three times with TBST, 5 minutes each and lastly the LiCOR was read.
as §1, with “SMARCA” for “SMARCA2”, “%)” for “% o)”, “(>90%” for “(>90% o”, “(>70-90%” for “(>70-90% o”, “(50-70%” for “(50-70% o”

SMARCA2 [2] = target: T1, SMARCA2; test: SMARCA2 Western blot MV4-11 degradation; parameters: SMARCA2 and SMARCA4 protein degradation in MV4-11 cells; endogenous in cells; host or cells: MV4-11; conditions: for SMARCA2 MSD MV411 degradation 24 h: average Dmax % / DC50: MV4-11 cells; for DC50 / Dmax: 24 h; for DC50: read-out: SMARCA2 MSD MV411 degradation 24 h: Mean external-Abs DC50; for Dmax: MV4-11, MV4-11 cells, read-out: SMARCA2 MSD MV411 degradation 24 h: average Dmax %

T1 sequence (P51531 whole entry): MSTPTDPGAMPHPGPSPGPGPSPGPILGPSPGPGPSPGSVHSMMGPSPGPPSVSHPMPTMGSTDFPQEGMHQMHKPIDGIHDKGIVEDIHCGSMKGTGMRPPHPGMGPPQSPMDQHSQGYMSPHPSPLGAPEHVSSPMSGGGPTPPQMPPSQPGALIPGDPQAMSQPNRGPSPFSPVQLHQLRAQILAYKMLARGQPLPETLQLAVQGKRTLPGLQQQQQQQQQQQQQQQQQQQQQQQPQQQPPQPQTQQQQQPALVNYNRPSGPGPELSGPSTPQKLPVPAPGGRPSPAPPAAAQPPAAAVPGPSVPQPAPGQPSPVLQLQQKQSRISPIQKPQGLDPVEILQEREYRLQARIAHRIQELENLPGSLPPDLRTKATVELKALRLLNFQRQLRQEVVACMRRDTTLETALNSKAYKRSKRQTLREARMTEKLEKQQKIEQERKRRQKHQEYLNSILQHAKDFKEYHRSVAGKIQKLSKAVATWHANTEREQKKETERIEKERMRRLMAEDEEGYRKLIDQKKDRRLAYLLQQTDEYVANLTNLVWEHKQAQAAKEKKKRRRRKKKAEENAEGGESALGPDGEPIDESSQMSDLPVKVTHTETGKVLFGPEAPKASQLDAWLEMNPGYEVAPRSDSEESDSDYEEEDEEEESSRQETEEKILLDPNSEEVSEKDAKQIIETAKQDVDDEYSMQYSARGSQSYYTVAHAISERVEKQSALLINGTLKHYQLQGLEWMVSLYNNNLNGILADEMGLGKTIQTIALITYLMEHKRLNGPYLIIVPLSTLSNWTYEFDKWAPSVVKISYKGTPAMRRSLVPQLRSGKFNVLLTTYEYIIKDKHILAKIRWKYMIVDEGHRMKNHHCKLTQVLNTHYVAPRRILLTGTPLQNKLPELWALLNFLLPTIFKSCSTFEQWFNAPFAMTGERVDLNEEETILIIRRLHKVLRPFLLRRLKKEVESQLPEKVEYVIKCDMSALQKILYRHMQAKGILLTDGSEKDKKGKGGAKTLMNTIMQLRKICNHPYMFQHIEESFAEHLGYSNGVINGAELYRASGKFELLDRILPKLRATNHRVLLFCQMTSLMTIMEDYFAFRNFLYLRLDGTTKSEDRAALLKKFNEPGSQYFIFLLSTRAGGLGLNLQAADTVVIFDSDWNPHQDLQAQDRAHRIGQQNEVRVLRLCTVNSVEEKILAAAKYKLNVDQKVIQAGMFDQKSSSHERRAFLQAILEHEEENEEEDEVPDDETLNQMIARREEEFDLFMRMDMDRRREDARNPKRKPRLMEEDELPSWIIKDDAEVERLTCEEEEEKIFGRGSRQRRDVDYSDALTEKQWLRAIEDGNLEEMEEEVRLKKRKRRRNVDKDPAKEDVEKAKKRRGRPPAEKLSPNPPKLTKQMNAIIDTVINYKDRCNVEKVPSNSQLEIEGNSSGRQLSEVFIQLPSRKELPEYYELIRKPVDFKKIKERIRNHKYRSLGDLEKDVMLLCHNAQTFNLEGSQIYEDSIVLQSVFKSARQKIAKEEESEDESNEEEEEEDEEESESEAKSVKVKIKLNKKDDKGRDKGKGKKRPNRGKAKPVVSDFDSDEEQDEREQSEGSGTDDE

## Cc1ncsc1-c1ccc(CNC(=O)[C@@H]2C[C@@H](O)CN2C(=O)[C@@H](NC(=O)[C@H]2CC3(CC[C@H](N4CCC(c5cnc(N6C7CCC6CN(c6cc(-c8ccccc8O)nnc6N)C7)nc5)CC4)CC3)C2)C(C)(C)C)cc1 (stereo partly drawn) [I-14, (2S,4R)-1-((2S)-2-(7-(4-(2-(3-(3-amino-6-(2-hydroxyphenyl)pyridazin-4-yl)-3,8-diazabicyclo[3.2.1]octan-8-yl)pyrimidin-5-yl)piperidin-1-yl)spiro[3.5]nonane-2-carboxamido)-3,3-dimethylbutanoyl)-4-hydroxy-N-(4-(4-methylthiazol-5-yl)benzyl)pyrrolidine-2-carboxamide]
SMARCA2 [1]
  SMARCA2 MSD A549 degradation 24 h: Average Dmax %: B (B (>70-90% o degradation))
  DC50: < 100 nM
SMARCA4
  SMARCA4 MSD MV411 degradation 24 h: average Dmax %: B (B (>70-90% degradation))
  DC50: > 1000 nM
SMARCA2 [2]
  SMARCA2 MSD MV411 degradation 24 h: average Dmax %: B (B (>70-90% degradation))
  DC50: < 100 nM

## Cc1ncsc1-c1ccc(CNC(=O)[C@@H]2C[C@@H](O)CN2C(=O)[C@@H](NC(=O)C2CC3(C2)CN(C2CCC(c4cnc(N5C6CCC5CN(c5cc(-c7ccccc7O)nnc5N)C6)nc4)CC2)C3)C(C)(C)C)cc1 (stereo partly drawn) [I-7, 2-(4-(2-(3-(3-amino-6-(2-hydroxyphenyl)pyridazin-4-yl)-3,8-diazabicyclo[3.2.1]octan-8-yl)pyrimidin-5-yl)cyclohexyl)-N—((S)-1-((2S,4R)-4-hydroxy-2-((4-(4-methylthiazol-5-yl)benzyl)carbamoyl)pyrrolidin-1-yl)-3,3-dimethyl-1-oxobutan-2-yl)-2-azaspiro[3.3]heptane-6-carboxamide]
SMARCA2 [1]
  Dmax: 70 to 90%
  DC50: 501 to 1000 nM
SMARCA4
  Dmax: < 50%
  DC50: > 1000 nM
SMARCA2 [2]
  Dmax: 70 to 90%
  DC50: < 100 nM

## Cc1n[nH]c(C)c1-c1ccc(CNC(=O)[C@@H]2C[C@@H](O)CN2C(=O)[C@@H](NC(=O)[C@H]2CC3(C2)C[C@H](N2CCC(c4cnc(N5C6CCC5CN(c5cc(-c7ccccc7O)nnc5N)C6)nc4)CC2)C3)C(C)(C)C)cc1 (stereo partly drawn) [I-32, (2S,4R)-1-((2S)-2-(6-(4-(2-(3-(3-amino-6-(2-hydroxyphenyl)pyridazin-4-yl)-3,8-diazabicyclo[3.2.1]octan-8-yl)pyrimidin-5-yl)piperidin-1-yl)spiro[3.3]heptane-2-carboxamido)-3,3-dimethylbutanoyl)-N-(4-(3,5-dimethyl-1H-pyrazol-4-yl)benzyl)-4-hydroxypyrrolidine-2-carboxamide]
SMARCA2 [1]
  SMARCA2 MSD A549 degradation 24 h: Average Dmax %: D (D (<50% degradation))
SMARCA4
  SMARCA4 MSD MV411 degradation 24 h: average Dmax %: D (D (<50% degradation))
  DC50: > 1000 nM
SMARCA2 [2]
  SMARCA2 MSD MV411 degradation 24 h: average Dmax %: D (D (<50% degradation))
  DC50: 100 to 500 nM

## Cc1ncsc1-c1cnc(CNC(=O)[C@@H]2C[C@@H](O)CN2C(=O)[C@@H](NC(=O)[C@H]2CC3(C2)C[C@H](N2CCC(c4ccc(N5C6CCC5CN(c5cc(-c7ccccc7O)nnc5N)C6)cc4)CC2)C3)C(C)(C)C)nc1 (stereo partly drawn) [I-25, (2S,4R)-1-((2S)-2-(6-(4-(4-(3-(3-amino-6-(2-hydroxyphenyl)pyridazin-4-yl)-3,8-diazabicyclo [3.2.1]octan-8-yl)phenyl)piperidin-1-yl)spiro[3.3]heptane-2-carboxamido)-3,3-dimethylbutanoyl)-4-hydroxy-N-((5-(4-methylthiazol-5-yl)pyrimidin-2-yl)methyl)pyrrolidine-2-carboxamide]
SMARCA2 [1]
  Dmax: < 50%
  DC50: > 1000 nM
SMARCA4
  Dmax: < 50%
  DC50: > 1000 nM
SMARCA2 [2]
  Dmax: < 50%
  DC50: > 1000 nM

## Cc1n[nH]c(C)c1-c1ccc(CNC(=O)[C@@H]2C[C@@H](O)CN2C(=O)[C@@H](NC(=O)[C@H]2CC3(C2)C[C@H](N2CCC(c4cnc(N5C6CCC5CN(c5cc(-c7ccccc7O)nnc5N)C6)nc4)CC2)C3)C(C)(C)C)cc1 (stereo partly drawn) [I-31, (2S,4R)-1-((2S)-2-(6-(4-(2-(3-(3-amino-6-(2-hydroxyphenyl)pyridazin-4-yl)-3,8-diazabicyclo[3.2.1]octan-8-yl)pyrimidin-5-yl)piperidin-1-yl)spiro[3.3]heptane-2-carboxamido)-3,3-dimethylbutanoyl)-N-(4-(3,5-dimethyl-1H-pyrazol-4-yl)benzyl)-4-hydroxypyrrolidine-2-carboxamide]
SMARCA2 [1]
  Dmax: < 50%
SMARCA4
  Dmax: < 50%
  DC50: > 1000 nM
SMARCA2 [2]
  Dmax: 50 to 70%
  DC50: < 100 nM

## Cc1ncsc1-c1ccc(CNC(=O)[C@@H]2C[C@@H](O)CN2C(=O)[C@@H](NC(=O)N2CCC(N3CCC(c4cnc(N5C6CCC5CN(c5cc(-c7ccccc7O)nnc5N)C6)nc4)CC3)CC2)C(C)(C)C)cc1 [I-59, 4-(2-(3-(3-amino-6-(2-hydroxyphenyl)pyridazin-4-yl)-3,8-diazabicyclo[3.2.1]octan-8-yl)pyrimidin-5-yl)-N—((S)-1-((2S,4R)-4-hydroxy-2-((4-(4-methylthiazol-5-yl)benzyl)carbamoyl)pyrrolidin-1-yl)-3,3-dimethyl-1-oxobutan-2-yl)-[1,4′-bipiperidine]-1′-carboxamide]
SMARCA2 [1]
  Dmax: < 50%
  DC50: > 1000 nM
SMARCA4
  Dmax: < 50%
  DC50: > 1000 nM
SMARCA2 [2]
  Dmax: < 50%
  DC50: 501 to 1000 nM

Source: US12606568B2, “SMARCA degraders and uses thereof” (Kymera Therapeutics, Inc., priority 2020, dated 2026)
